Source: patent publication US9334267B2, “RAF inhibitor compounds” (Deciphera Pharmaceuticals, LLC, priority 2012, dated 2016)

Key:
[1] = system: phospho-ERK in A375 (BRAF V600E) xenograft; test: A375 mouse xenograft pharmacodynamic assay (tumor phospho-ERK by ELISA); assay type: in vivo; conditions: A375 xenografts in nude female mice, 20 mg/kg oral (gavage), vs vehicle
Experimental: To evaluate the in vivo pharmacodynamic (PD) effects of compounds of Formula I, an A375 (BRAF V600E) xenograft model is employed. Briefly, 10×10^6 A375 tumor cells (ATCC) are prepared in a 1:1 matrigel mix (0.2 mL total volume) and implanted by subcutaneous injection in hind leg of nude female mice. A total of 4 mice each for each dosing group are employed. Treatment is initiated with oral administration (gavage) of test compound or vehicle (20% captisol, 25 mM phosphate, pH2.0) in 0.2 mL volume when average tumor size reaches approximately 300 mg. After a fixed time interval, the tumors are harvested and the phospho-ERK levels are measured by ELISA (Enzyme-linked immunosorbent assay). Treated groups are compared to the vehicle control group to calculate % inhibition.

A375res cells = test: Proliferation assay in vemurafenib-resistant melanoma cells A375res; conditions: Homo sapiens, 72 h, read-out: absolute IC50 values
[2] = system: phospho-ERK in HCT-116 cells; test: HCT-116 cell pERK assay (AlphaScreen SureFire); assay type: cell-based; conditions: Homo sapiens, B-Raf wild type, K-Ras mutation, 4 hours, range over the listed examples, read-out: phospho-ERK signal IC50
Experimental: Examples of Formula I are tested against HCT-116 cells harboring wild type B-Raf and K-Ras mutation. The phospho-ERK activities are evaluated as described below.
HCT-116 cells (catalog #CCL-247) are obtained from the American Type Culture Collection (ATCC, Manassas, Va.). Briefly, cells are grown in McCoy's 5A supplemented with 10% characterized fetal bovine serum (Invitrogen, Carlsbad, Calif.), and 1% Penicillin/Streptomycin/L-Glutamine at 37 degrees Celsius, 5% CO2, and 95% humidity. Cells are allowed to expand until reaching 75-90% confluency at which point they are subcultured or harvested for assay use. HCT-116 cells suspended in complete media are added to 384-well tissue culture treated plates (3×10^5 cells/mL; 7,500 cells per well). The cells are incubated overnight at 37 degrees Celsius, 5% CO2, and 95% humidity. Next, test compound or DMSO diluted in complete media is added to the wells (0.25% final DMSO concentration). The plates are then incubated for 4 hours at 37 degrees Celsius, 5% CO2, and 95% humidity. Following compound incubation, the cells are lysed at 4° C. for 20 minutes with shaking. Cell lysates are centrifuged and the supernatant is transferred to a new plate. An aliquot of each lysate is transferred to a white 384-well assay plate. Using the AlphaScreen SureFire pERK kit (Perkin-Elmer, Waltham, Mass.), an acceptor bead mixture is added to each well and incubated for 2 h at room temperature in the dark. A donor bead mixture is then added to each well and incubated for 2 h at room temperature in the dark. Plates are read using a Synergy2 plate reader (Biotek, Winooski, Vt.) in Plate Mode with Timing Control. Read: (F)1: excitation: 680/30 nm, emission: Plug. 2: Excitation: Plug, emission: 570/100 nm. Top mirror 635 nm. Data is analyzed using Prism software (Graphpad, San Diego, Calif.) to calculate IC50 values and Excel software (Microsoft, Redmond, Wash.) to calculate stimulation compared to control.

[3] = system: A375 V600E xenograft tumor; test: A375 rat xenograft efficacy model; assay type: in vivo, rats; conditions: orally twice a day at 10 and 20 mg/kg for 21 days
Experimental: To further evaluate in vivo activity of compounds of Formula I, A375 V600E (ATCC) and HCT-116 K—Ras mutant B-Raf wild type (ATCC) xenograft tumor models are used. Briefly, 10×10^6 cells (A375) or 5×10^6 cells (HCT-116) in a 1:1 medium and matrigel mix (0.2 mL total volume) are implanted by subcutaneous injection in the hind leg of nude female rats (NIH model No. NIHRNU-M from Taconic). A total of 8 rats in each group are used for the efficacy study, and a total of 3-4 rats in each group are used for a pharmacodynamic study. Treatment is initiated with oral administration (gavage) of test compound or vehicle (20% Captisol®, 25 mM phosphate, pH 2.0) in 0.6 mL volume when tumor size reaches approximately 500 mg. Test compound is orally dosed twice a day for 21 days. Tumor growth and body weight are monitored over time to evaluate activity and signs of toxicity. Bidimensional measurements of tumors are performed twice a week and tumor volumes are calculated based on mid-axis length and mid-axis width. Tumor volume data are transformed to a log scale to equalize variance across time and treatment groups. The log volume data are analyzed with a two-way repeated measures analysis of variance by time and treatment using the MIXED® procedures in SAS® software (version 8.2). The correlation model for the repeated measures is spatial power. […]

| SMILES | IC50 (A375res cells) [nM] | Measured pERK inhibition 2 h post dose [1] [% inhibition] | further results |
| --- | --- | --- | --- |
| CNc1ncc2cc(-c3cc(NC(=O)NCCC(C)(C)C)c(F)cc3F)c(C)nc2n1 [Example 1, 1-(2,4-Difluoro-5-(7-methyl-2-(methylamino)pyrido[2,3-d]pyrimidin-6-yl)phenyl)-3-(3,3-dimethylbutyl)urea] | – | 54 | – |
| CNc1ncc2cc(-c3ccc(F)c(NC(=O)NCCC(C)(C)C)c3)c(C)nc2n1 [Example 2, 1-(3,3-Dimethylbutyl)-3-(2-fluoro-5-(7-methyl-2-(methylamino)pyrido[2,3-d]pyrimidin-6-yl)phenyl)urea] | – | 38 | – |
| COCCNc1ncc2cc(-c3cc(NC(=O)NCCC(C)(C)C)c(F)cc3C)c(C)nc2n1 [Example 5, 1-(3,3-Dimethylbutyl)-3-(2-fluoro-5-(2-((2-methoxyethyl)amino)-7-methylpyrido[2,3-d]pyrimidin-6-yl)-4-methylphenyl)urea] | – | 77 | – |
| Cc1cc(F)c(NC(=O)NCCC(C)(C)F)cc1-c1cc2cnc(NC3COC3)nc2nc1C [Example 25, 1-(3-Fluoro-3-methylbutyl)-3-(2-fluoro-4-methyl-5-(7-methyl-2-(oxetan-3-ylamino)pyrido[2,3-d]pyrimidin-6-yl)phenyl)urea] | 15 to 1100 | – | IC50 [2]: 2 to 472 nM |
| CCNc1ncc2cc(-c3cc(NC(=O)NCCC(C)(C)F)c(F)cc3C)c(C)nc2n1 [Example 26, 1-(5-(2-(Ethylamino)-7-methylpyrido[2,3-d]pyrimidin-6-yl)-2-fluoro-4-methylphenyl)-3-(3-fluoro-3-methylbutyl)urea] | 15 to 1100 | – | – |
| CNc1ncc2cc(-c3cc(NC(=O)NCCC(C)(C)C(F)(F)F)c(F)cc3C)c(C)nc2n1 [Example 27, 1-(2-Fluoro-4-methyl-5-(7-methyl-2-(methylamino)pyrido[2,3-d]pyrimidin-6-yl)phenyl)-3-(4,4,4-trifluoro-3,3-dimethylbutyl)urea] | 15 to 1100 | – | – |
| Cc1cc(F)c(NC(=O)NCCC(C)(C)F)cc1-c1cc2cnc(N)nc2nc1C [Example 28, 1-(5-(2-Amino-7-methylpyrido[2,3-d]pyrimidin-6-yl)-2-fluoro-4-methylphenyl)-3-(3-fluoro-3-methylbutyl)urea] | 15 to 1100 | – | – |
| CNc1ncc2cc(-c3cc(NC(=O)NCCC4(C(F)(F)F)CC4)c(F)cc3C)c(C)nc2n1 [Example 30, 1-(2-Fluoro-4-methyl-5-(7-methyl-2-(methylamino)pyrido[2,3-d]pyrimidin-6-yl)phenyl)-3-(2-(1-(trifluoromethyl)cyclopropyl)ethyl)urea] | 15 to 1100 | – | – |
| CNc1ncc2cc(-c3cc(NC(=O)NCCC(C)(C)F)c(F)cc3C)cnc2n1 [Example 34, 1-(3-Fluoro-3-methyl-butyl)-3-[2-fluoro-4-methyl-5-(2-methylaminopyrido[2,3-d]pyrimidin-6-yl)phenyl]urea] | 15 to 1100 | 72 | – |
| CNc1ncc2cc(-c3cc(NC(=O)NCCC(C)(C)C)c(F)cc3C)cnc2n1 [Example 35, 1-(3,3-Dimethylbutyl)-3-[2-fluoro-4-methyl-5-(2-methylaminopyrido[2,3-d]pyrimidin-6-yl)phenyl]urea] | 15 to 1100 | 79 | IC50 [2]: 2 to 472 nM |

Continued, in another order:

| IC50 (A375res cells) [nM] | SMILES | Measured pERK inhibition 2 h post dose [1] [% inhibition] | further results |
| --- | --- | --- | --- |
| 15 to 1100 | CNc1ncc2cc(-c3cc(NC(=O)NCCC(C)(C)F)c(F)cc3C)c(C)nc2n1 [Example 4, 1-(3-Fluoro-3-methylbutyl)-3-(2-fluoro-4-methyl-5-(7-methyl-2-(methylamino)pyrido[2,3-d]pyrimidin-6-yl)phenyl)urea] | 84 | – |
| 15 to 1100 | CNc1ncc2cc(-c3cc(NC(=O)NCC(O)C(C)(C)C)c(F)cc3C)c(C)nc2n1 (centres unmarked) [Example 15, 1-[2-Fluoro-4-methyl-5-(7-methyl-2-methylamino-pyrido[2,3-d]pyrimidin-6-yl)phenyl]-3-(2-hydroxy-3,3-dimethyl-butyl)urea] | – | – |
| 15 to 1100 | Cc1cc(F)c(NC(=O)NCCC(C)(C)C)cc1-c1cc2cnc(NCCO)nc2nc1C [Example 16, 1-(3,3-Dimethylbutyl)-3-[2-fluoro-5-[2-(2-hydroxyethylamino)-7-methyl-pyrido[2,3-d]pyrimidin-6-yl]-4-methyl-phenyl]urea] | – | – |
| 15 to 1100 | Cc1cc(F)c(NC(=O)NCCC(C)(C)C)cc1-c1cc2cnc(NCCN(C)C)nc2nc1C [Example 17, 1-[5-[2-(2-Dimethylaminoethylamino)-7-methyl-pyrido[2,3-d]pyrimidin-6-yl]-2-fluoro-4-methyl-phenyl]-3-(3,3-dimethylbutyl)urea] | – | – |
| 15 to 1100 | Cc1cc(F)c(NC(=O)NCCC(C)(C)C)cc1-c1cc2cnc(N)nc2nc1C [Example 20, 1-(5-(2-Amino-7-methylpyrido[2,3-d]pyrimidin-6-yl)-2-fluoro-4-methylphenyl)-3-(3,3-dimethylbutyl)urea] | – | – |
| 15 to 1100 | Cc1cc(F)c(NC(=O)NCCC(C)(C)C)cc1-c1cc2cnc(NCCN3CCOCC3)nc2nc1C [Example 21, 1-(3,3-Dimethylbutyl)-3-(2-fluoro-4-methyl-5-(7-methyl-2-((2-morpholinoethyl)amino)pyrido[2,3-d]pyrimidin-6-yl)phenyl)ure] | – | – |
| 15 to 1100 | CNc1ncc2cc(-c3cc(NC(=O)NCCC4(C)CC4)c(F)cc3C)c(C)nc2n1 [Example 24, 1-(2-Fluoro-4-methyl-5-(7-methyl-2-(methylamino)pyrido[2,3-d]pyrimidin-6-yl)phenyl)-3-(2-(1-methylcyclopropyl)ethyl)urea] | 88 | IC50 [2]: 2 to 472 nM; tumor growth ([3]; both dosing groups): tumor growth inhibition and tumor growth regression; animal body weight ([3]; either group): no animal body weight loss |
